# According to US20250066335A1, “POLYSUBSTITUTED 4-HYDROXYPYRIDINE AND 4-HYDROXYQUINOLINE DERIVATIVES AS GPR84 ANTAGONISTS” (UNIVERSITY OF COPENHAGEN, priority 2021, published 2025):
# Where a name gives a salt, the structure may show the parent alone.
# Target: T1, GPR84 (Homo sapiens, UniProt Q9NQS5)
# T1 construct: expressed in transfected cells; host or cells: HTLA cells (HEK293 line stably expressing a tTA-dependent luciferase reporter and a β-arrestin2-TEV fusion gene), transiently transfected with PEI
# T1 sequence (Q9NQS5 whole entry, the tested form may be a part): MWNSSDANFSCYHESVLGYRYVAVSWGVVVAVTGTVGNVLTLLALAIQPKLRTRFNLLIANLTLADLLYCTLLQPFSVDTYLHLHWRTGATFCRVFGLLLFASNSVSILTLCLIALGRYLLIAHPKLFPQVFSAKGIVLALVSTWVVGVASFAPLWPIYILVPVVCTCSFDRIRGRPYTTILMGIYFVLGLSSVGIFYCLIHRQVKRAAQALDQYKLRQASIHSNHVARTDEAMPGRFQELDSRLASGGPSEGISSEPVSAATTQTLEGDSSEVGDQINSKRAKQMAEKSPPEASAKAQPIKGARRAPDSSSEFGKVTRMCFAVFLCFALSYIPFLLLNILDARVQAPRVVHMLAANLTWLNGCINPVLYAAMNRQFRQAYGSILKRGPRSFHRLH
# Test: PRESTO-Tango β-arrestin2 recruitment assay, GPR84 antagonistic activity
# Format: cell-based
# Conditions: antagonist activity in the Presto-TANGO assay; inhibition of the response from the agonist ZQ-16 (100 nM); HTLA cells
# Protocol: PRESTO-Tango β-arrestin recruitment assay (W.K. Kroeze et al., 2015). HTLA cells (a HEK293 cell line stably expressing a tTA-dependent luciferase reporter and a β-arrestin2-TEV fusion gene) were maintained in Dulbecco's Modified Eagle's Medium (DMEM) supplemented with 10% Fetal Bovine Serum (dFBS), 100 U/mL penicillin and 100 μg/mL streptomycin, 2 μg/mL puromycin and 100 μg/mL hygromycin B in a humidified atmosphere at 37° C. in 5% CO2. For transfection, cells were plated at 9×10^6 to 10×10^6 cells per 15-cm cell-culture dish (day 1). The following day (day 2), cells were transfected by adding 5 μg DNA and 15 μg polyethylenimine (PEI) diluted in 1 mL Opti-MEM (Reduced Serum Medium supplied by ThermoFisher). On day 3, transfected cells were transferred at 25000 cells per well in 40 μl of medium into poly-l-lysine-coated and rinsed 384-well white, clear-bottomed cell-culture plates (Greiner Bio-One). On day 4, dilutions of the ligands to be tested were prepared in 1% dFBS DMEM and 10 μL were added to each well. On day 5, 20 μl per well of Bright-Glo solution (Promega) diluted 10-fold in assay buffer (Hanks' Balanced Salt Solution [HBSS], 20 mM HEPES, 1 mM CaCl2, 1 mM MgCl2, pH adjusted to 7.4 by 5 M NaOH) was added to each well. After incubation for 20 min at room temperature, luminescence was counted in an Enspire luminescence counter at 384 nm. Results in the form of relative luminescence units (RLU) were exported into Excel spreadsheets, and GraphPad Prism was used for analysis of data. To measure constitutive activity, no ligand was added on day 4.
# The GPR84 antagonistic activity of the compounds was determined using the PRESTO-Tango β-arrestin2 recruitment assay (Assay I, see assays above), from which the concentration of each compound required for 50% inhibition (IC50) of the response from the agonist ZQ-16 (100 nM) was determined. The antagonistic activity for each compound is given in Table 1 as the pIC50, which is the negative log of the IC50 value when converted to molar.
row,SMILES,IC50
1,"CCCc1ccc(CCc2nc(OCC3CCCCO3)cc(O)c2CCC)cc1 (stereo not shown) [Example 7, 3-Propyl-2-(4-propylphenethyl)-6-((tetrahydro-2H-pyran-2-yl)methoxy)pyridin-4-ol]",6.61 nM
2,"CCOC(=O)CCCCOc1ccc(CCc2nc(OCC3COCCO3)cc(O)c2CC)cc1 (stereo not shown) [Example 36, Ethyl 5-(4-(2-(6-((1,4-dioxan-2-yl)methoxy)-3-ethyl-4-hydroxypyridin-2-yl)ethyl)phenoxy)pentanoate]",0.257 nM
3,"CCCc1ccc(CCc2nc(OCC3CCCCO3)cc(O)c2-c2ccc(C(=O)O)cc2)cc1 (stereo not shown) [Example 21, 4-(4-Hydroxy-2-(4-propylphenethyl)-6-((tetrahydro-2H-pyran-2-yl)methoxy)pyridin-3-yl)benzoic acid]",141 nM
4,"CCCc1ccc(CCc2nc(OCC3COCCO3)cc(O)c2C)cc1 (stereo not shown) [Example 22, 6-((1,4-Dioxan-2-yl)methoxy)-3-methyl-2-(4-propylphenethyl)pyridin-4-ol]",3.02 nM
5,"CCCc1ccc(CCc2nc(OCC3CCCCO3)cc(O)c2CC)cc1 (stereo not shown) [Example 6, 3-Ethyl-2-(4-propylphenethyl)-6-((tetrahydro-2H-pyran-2-yl)methoxy)pyridin-4-ol]",2.14 nM
6,"CCc1c(O)cc(OCC2COCCO2)nc1CCc1ccc(OCc2nc(C)no2)cc1 (stereo not shown) [Example 40, 6-((1,4-Dioxan-2-yl)methoxy)-3-ethyl-2-(4-((3-methyl-1,2,4-oxadiazol-5-yl)methoxy)phenethyl)pyridin-4-ol]",2.95 nM
7,"Cc1c(O)cc(OCC2COCCO2)nc1CCc1ccc(OCCN)cc1 (stereo not shown) [Example 29, 2-(4-(2-(6-((1,4-Dioxan-2-yl)methoxy)-4-hydroxy-3-methylpyridin-2-yl)ethyl)phenoxy)ethan-1-aminium chloride]",16.2 nM
8,"CCCc1ccc(CCc2nc(OCC3CCCCO3)cc(O)c2CCC(=O)OCC)cc1 (stereo not shown) [Example 13, Ethyl 3-(4-hydroxy-2-(4-propylphenethyl)-6-((tetrahydro-2H-pyran-2-yl)methoxy)pyridin-3-yl)propanoate]",13.2 nM
9,"CCc1c(O)cc(OCC2COCCO2)nc1CCc1ccc(O)cc1 (stereo not shown) [Example 43, 6-((1,4-dioxan-2-yl)methoxy)-3-ethyl-2-(4-hydroxyphenethyl)pyridin-4-ol]",1.07 nM
10,"CCc1c(O)cc(OCC2COCCO2)nc1CCc1ccc(OCCOc2ccccc2)cc1 (stereo not shown) [Example 38, 6-((1,4-Dioxan-2-yl)methoxy)-3-ethyl-2-(4-(2-phenoxyethoxy)phenethyl)pyridin-4-ol]",0.2 nM
11,"CCc1c(O)cc(OCC2COCCO2)nc1CCc1ccc(OCCCN)cc1 (stereo not shown) [Example 46, 6-((1,4-Dioxan-2-yl)methoxy)-2-(4-(3-aminopropoxy)phenethyl)-3-ethylpyridin-4-ol hydrochloride]",0.832 nM
12,"CCc1c(O)cc(OCC2COCCO2)nc1CCc1ccc(OCCCCC(=O)O)cc1 (stereo not shown) [Example 47, 5-(4-(2-(6-((1,4-Dioxan-2-yl)methoxy)-3-ethyl-4-hydroxypyridin-2-yl)ethyl)phenoxy)pentanoic acid]",4.07 nM
13,"CCCc1ccc(CCc2nc(OCC3CCCCO3)cc(O)c2CCCO)cc1 (stereo not shown) [Example 15, 3-(3-Hydroxypropyl)-2-(4-propylphenethyl)-6-((tetrahydro-2H-pyran-2-yl)methoxy)pyridin-4-ol]",1.7 nM
14,"CCOc1ccc(CCc2nc(OCC3CCCCO3)cc(O)c2C#N)cc1 (stereo not shown) [Example 4, 2-(4-Ethoxyphenethyl)-4-hydroxy-6-((tetrahydro-2H-pyran-2-yl)methoxy)nicotinonitrile]",145 nM
15,"CCOC(=O)COc1ccc(CCc2nc(OCC3COCCO3)cc(O)c2C)cc1 (stereo not shown) [Example 28, Ethyl 2-(4-(2-(6-((1,4-dioxan-2-yl)methoxy)-4-hydroxy-3-methylpyridin-2-yl)ethyl)phenoxy)acetate]",11.2 nM
16,"CCc1c(O)cc(OC[C@@H]2COCCO2)nc1CCc1ccc(OC)c(OC)c1 [Example 52, (S)-6-((1,4-dioxan-2-yl)methoxy)-2-(3,4-dimethoxyphenethyl)-3-ethylpyridin-4-ol]",1.26 nM
17,"CCCc1ccc(CCc2nc(OCC3CCCCO3)cc(O)c2C)cc1 (stereo not shown) [Example 2, 3-Methyl-2-(4-propylphenethyl)-6-((tetrahydro-2H-pyran-2-yl)methoxy)pyridin-4-ol]",1.32 nM

row,SMILES,IC50
1,"CCc1c(O)cc(OCC2COCCO2)nc1CCc1ccc(OCCCS(C)(=O)=O)cc1 (stereo not shown) [Example 39, 6-((1,4-Dioxan-2-yl)methoxy)-3-ethyl-2-(4-(3-(methylsulfonyl)propoxy)phenethyl)pyridin-4-ol]",0.871 nM
2,"CCCc1ccc(CCc2nc(OCC3COCCO3)cc(O)c2CC)cc1 (stereo not shown) [Example 25, 6-((1,4-Dioxan-2-yl)methoxy)-3-ethyl-2-(4-propylphenethyl)pyridin-4-ol]",0.776 nM
3,"CCc1c(O)cc(OC[C@@H]2COCCO2)nc1CCc1ccc(OC)cc1C#N [Example 55, (S)-2-(2-(6-((1,4-dioxan-2-yl)methoxy)-3-ethyl-4-hydroxypyridin-2-yl)ethyl)-5-methoxybenzonitrile]",0.55 nM
4,"CCc1c(O)cc(OCC2COCCO2)nc1CCc1ccc(OCC(N)=O)cc1 (stereo not shown) [Example 37, 2-(4-(2-(6-((1,4-Dioxan-2-yl)methoxy)-3-ethyl-4-hydroxypyridin-2-yl)ethyl)phenoxy)acetamide]",2.88 nM
5,"CCOc1ccc(C2CC2c2nc(OCC3COCCO3)cc(O)c2CC)cc1 (stereo not shown) [Example 51, 6-((1,4-Dioxan-2-yl)methoxy)-2-(2-(4-ethoxyphenyl)cyclopropyl)-3-ethylpyridin-4-ol]",87.1 nM
6,"CCCc1ccc(CCc2nc(OCC3CCCCO3)cc(O)c2CCc2ccccc2)cc1 (stereo not shown) [Example 11, 3-Phenethyl-2-(4-propylphenethyl)-6-((tetrahydro-2H-pyran-2-yl)methoxy)pyridin-4-ol]",178 nM
7,"CCCc1ccc(CCc2nc(OCC3CCCCO3)cc(O)c2-c2ccc(CC)cc2)cc1 (stereo not shown) [Example 16, 3-(4-Ethylphenyl)-2-(4-propylphenethyl)-6-((tetrahydro-2H-pyran-2-yl)methoxy)pyridin-4-ol]",70.8 nM
8,"CCCc1ccc(CCc2nc(OCC3CCCCO3)cc(O)c2-c2ccc(OCC(=O)OC)cc2)cc1 (stereo not shown) [Example 18, Methyl 2-(4-(4-hydroxy-2-(4-propylphenethyl)-6-((tetrahydro-2H-pyran-2-yl)methoxy)pyridin-3-yl)phenoxy)acetate]",148 nM
9,"CCCc1ccc(CCc2nc(OCC3CCCCO3)cc(O)c2-c2ccc(C(=O)OC)cc2)cc1 (stereo not shown) [Example 20, Methyl 4-(4-hydroxy-2-(4-propylphenethyl)-6-((tetrahydro-2H-pyran-2-yl)methoxy)pyridin-3-yl)benzoate]",145 nM
10,"CCc1c(O)cc(OCC2COCCO2)nc1CCc1ccc(OCCN)cc1 (stereo not shown) [Example 45, 6-((1,4-Dioxan-2-yl)methoxy)-2-(4-(2-aminoethoxy)phenethyl)-3-ethylpyridin-4-ol hydrochloride]",2.34 nM
11,"CCc1c(O)cc(OC[C@@H]2COCCO2)nc1CCc1ccc(OC)c(C#N)c1 [Example 54, (S)-5-(2-(6-((1,4-dioxan-2-yl)methoxy)-3-ethyl-4-hydroxypyridin-2-yl)ethyl)-2-methoxybenzonitrile]",1.55 nM
12,"CCCc1ccc(CCc2nc(OCC3CCCCO3)cc(O)c2-c2ccc(C)cc2)cc1 (stereo not shown) [Example 10, 2-(4-Propylphenethyl)-6-((tetrahydro-2H-pyran-2-yl)methoxy)-3-(p-tolyl)pyridin-4-ol]",66.1 nM
13,"Cc1c(O)cc(OCC2COCCO2)nc1CCc1ccc(OCC(=O)O)cc1 (stereo not shown) [Example 30, 2-(4-(2-(6-((1,4-Dioxan-2-yl)methoxy)-4-hydroxy-3-methylpyridin-2-yl)ethyl)phenoxy)acetic acid]",1290 nM
14,"CCCc1ccc(CCc2nc(OCC3CCCCO3)cc(O)c2-c2ccc(OCC(=O)O)cc2)cc1 (stereo not shown) [Example 19, 2-(4-(4-Hydroxy-2-(4-propylphenethyl)-6-((tetrahydro-2H-pyran-2-yl)methoxy)pyridin-3-yl)phenoxy)acetic acid]",93.3 nM
15,"CCc1c(O)cc(OCC2COCCO2)nc1CCc1ccc(OCCO)cc1 (stereo not shown) [Example 35, 6-((1,4-Dioxan-2-yl)methoxy)-3-ethyl-2-(4-(2-hydroxyethoxy)phenethyl)pyridin-4-ol]",0.741 nM
16,"CCc1c(O)cc(OC[C@@H]2COCCO2)nc1CCc1ccc(OC)cc1OC [Example 53, (S)-6-((1,4-dioxan-2-yl)methoxy)-2-(2,4-dimethoxyphenethyl)-3-ethylpyridin-4-ol]",0.355 nM
17,"Cc1c(O)cc(OCC2COCCO2)nc1CCc1ccc(OCCNC(=O)OC(C)(C)C)cc1 (stereo not shown) [Example 27, Tert-butyl (2-(4-(2-(6-((1,4-dioxan-2-yl)methoxy)-4-hydroxy-3-methylpyridin-2-yl)ethyl)phenoxy)ethyl)carbamate]",0.282 nM
